A short description of data set [1]: Caco-2 permeability assay. To be noted: human. The class given is in vitro ADME. The protocol: (§1) Caco-2 cells (ATCC under the license of Abcam Inc., doing business as NaviCyte Scientific, Berkeley, CA) cultured to confluency were trypsinized and seeded onto a filter transwell insert (high-throughput screening Transwell 96-well permeable supports; Corning Inc.) at a density of ~10,000 cells/well in Dulbecco’s modified Eagle’s medium (DMEM). Confluent cells were subcultured at passages 58–62 and grown in a humidified atmosphere of 5% CO2 at 37°C. Following an overnight attachment period (24 h after seeding), the cell medium was replaced every other day with fresh medium in both the apical and basolateral compartments. The cell monolayers were used for transport studies 21 days post-seeding, when monolayer integrity was checked by measuring the transepithelial electrical resistance (TEER). If TEER values were ≥500 Ω/cm^2, the medium was removed and the cells were washed twice with pre-warmed (37°C) Hank’s Balanced Salt Solution (HBSS). Compound stock solutions were made in DMSO and further diluted in HBSS (1% final DMSO concentration). All compounds, including controls (colchicine, E3S), were tested at a final concentration of 5 to 10 µM. For A → B directional transport, the donor working solution was added to the apical compartment (A) and HBSS as receiver working solution to the basolateral compartment (B). For B → A directional transport, the donor working solution was added to B and HBSS as receiver working solution to A. The cells were incubated at 37°C for 120 min with gentle stirring. At the end of the incubation, samples were taken from both donor and receiver compartments and transferred into 384-well plates, and compound concentrations were determined by UPLC-MS/MS analysis as for the plasma stability assay.

The test system of data set [2] is Caco-2 cells. Description: Caco-2 permeability assay. It counts as in vitro ADME. To be noted: Caco-2, A→B, 37°C. The protocol: as §1
Data set [3] can be described thus: Human microsomal stability assay. It counts as in vitro ADME. To be noted: 37°C. On the procedure:
The following components were added in a 96-well microplate in a final volume of 500 µL 50 mM Na/K phosphate buffer, pH 7.4 (stock solutions are indicated in parentheses, dissolved in the same buffer unless otherwise specified): […] NADP (10 mM), 10 µM glucose 6-phosphate (100 mM), […] glucose 6-phosphate dehydrogenase (40 U/mL, dissolved in 5 mM sodium citrate), 3 µM MgCl2·6 H2O (30 mM, dissolved in H2O), 0.8 mg protein/mL of human microsomes (10 mg/mL protein; XenoTech), and 1 µM of test compound (100 µM, dissolved in ACN). Plates were incubated at 37°C and 75 µL samples were taken at 0, 10, 20, 40, and 60 min, to which 75 µL ACN + internal standard (Rolipram) to inactivate the microsomes and 30 µL of 0.5% formic acid in H2O to improve the chromatographic conditions were added, and kept at 4°C. When all the samples were taken, the plate was centrifuged at 46,000 × g for 30 min at 15°C, and UPLC-MS/MS was performed as above, except for the time in 100% B from 1 to 2.5 min, the return to 95% A:5% B from 2.5 to 2.6 min, and the maintenance of this ratio from 2.6 to 3.0 min. Metabolic stability was calculated from the logarithm of the remaining compound at each of the times evaluated.

The nature of data set [4]: in vitro. To be noted: 37°C. The class given is in vitro ADME. The protocol:
Plates (96-well Polypropylene Deep Well Plate; Corning Inc., Somerville, MA, US) containing 100 µL of 5 µM compounds in human plasma (Seralab, Granollers, Spain), pooled from healthy donors and extracted in citrate tubes, were incubated at 37°C for different times (0, 60, 120, and 360 min). Then, 300 µL ACN was added to precipitate plasma protein, and the plate was centrifuged at 4000 × g for 60 min at 4°C. For sample quantification, the resulting supernatant was taken and analyzed by ultra performance liquid chromatography with tandem mass spectrometry (UPLC-MS/MS; ACQUITY Xevo TQD UPLC QSM; Waters) in an ACQUITY BEH C18 column (1.7 µm, 2.1 × 50 mm; Waters). As mobile phase (0.6 mL/min flow rate) was used the following gradient of 0.1% formic acid in water (A) or in ACN (B): 95% A:5% B from 0 to 0.1 min, gradual increase to 100% B from 0.1 to 1 min, maintenance in 100% B from 1 to 2 min, return to 95% A:5% B from 2 to 2.1 min, and maintenance of this ratio from 2.1 to 2.5 min. Compound concentrations were calculated from the MS peak areas.

Data set [5] concerns L. infantum amastigotes. Description: Amastigote growth inhibition assay (parasite rescue and transformation, RAW 264.7 macrophages). The class given is cell-based, Leishmania infantum. To be noted: in vitro. On the procedure: Compound activity on amastigotes was determined following the parasite rescue and transformation assay ([61]). RAW 264.7 macrophages were seeded in 96-well microtiter plates at 10^5 cells/mL of DMEM supplemented with 10% FBS and 1% penicillin-streptomycin (complete DMEM, DMEMc) in a final volume of 200 µL per well. After an overnight incubation (37°C, 5% CO2) to allow cell adherence, the medium was removed and 10^6 L. infantum promastigotes/mL were added (1:10 macrophage:promastigote ratio) in DMEM supplemented with 2% FBS and 1% penicillin-streptomycin (DMEM 2% FBS). After 24 h, parasites not internalized by macrophages were removed by washing (3×, PBS) and dilutions in DMEM 2% FBS of free or liposome-encapsulated compounds were added. After 48 h, the medium was removed, cells were washed three times with PBS, and 40 µL of 0.05% SDS in complete Schneider’s medium was added; after 40 s, 160 additional µL/well of complete Schneider’s medium was added and plates were incubated at 26°C for another 48 h. Then, resazurin sodium salt was incorporated at a final concentration of 0.00125% and plates were incubated for 24 h more in the same conditions. Afterwards, resorufin fluorescence was measured as above.

One compound from PMC10916400, “Effect of the aggregated protein dye YAT2150 on Leishmania parasite viability” (Antimicrobial Agents and Chemotherapy, 2024) can be followed below.

For the compound `CCN(CC)c1ccc(/C=C/c2cc[n+](CCCCCCCCCC[n+]3ccc(/C=C/c4ccc(N(CC)CC)cc4)c(C)c3)cc2C)cc1` [YAT2150], in data set [1] (Caco-2, Caco-2, A→B, 37°C), the Papp A→B at 120 min was more than 20 ×10⁻⁶ cm/s. The same compound showed a Papp B→A at 120 min in data set [1] (Caco-2, Caco-2, B→A, 37°C) of approximately 10 ×10⁻⁶ cm/s. In addition, in data set [1] (Caco-2, Papp BA/Papp AB), the efflux ratio at 120 min came out at 0.48. Further, the “Papp AB” value in data set [2] is 20.76 ± 2.01 ×10⁻⁶ cm/s. Also, the “t1/2, microsomal stability” value in data set [3] (human microsomes) is 1.34 h. This compound returned a fraction remaining at 1 h, 1 µM in data set [3] (human, microsomes, pH 7.4, human microsomes, after 1 h) of 55%. Also, the half-life at 1 µM in data set [3] (human, microsomes, pH 7.4, human microsomes, read-out: t1/2, microsomal stability) was found to be 1.33 h. This compound returned a microsomal CLint at 1 µM in data set [3] (pH 7.4, human microsomes) of 10.6 µL/min/mg. In data set [4] (human plasma, after 6 h), the “% remaining, plasma stability” value was 91.3%. Also, the share remaining at 1 h, 5 µM in data set [4] (human, plasma, after 1 h, read-out: % remaining, plasma stability) was determined as 100%. Also, in data set [4] (human, plasma, after 2 h, read-out: % remaining, plasma stability), the amount remaining at 2 h, 5 µM came to 99.7%. Also, the amount remaining at 6 h, 5 µM in data set [4] (human, plasma, after 6 h, read-out: % remaining, plasma stability) amounted to 91%. For the same compound, the half-maximal inhibitory concentration (IC50) in data set [5] (L. infantum amastigotes in RAW 264.7 macrophages) was 510 ± 110 nM; in data set [5] (Leishmania infantum, RAW264.7, L. infantum amastigotes in RAW 264.7 macrophages) it was approximately 520 nM.
